Consider eleven compounds from PubChem BioAssay AID248 (DTP/NCI, 2004).

The assay has as its system L1210 leukemia ip in BDF1 mice, survival T/C. Nature of the assay: NCI In Vivo Anticancer Drug Screen. Data for tumor model L1210 Leukemia (intraperitoneal) in B6D2F1 (BDF1) mice. To be noted: endpoint: mean survival time, higher = longer survival. In short, it runs like this: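 Tumor cells were implanted, animals were treated, and survival was followed. The result divides the treated measurement by the vehicle-control measurement.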

The mark [1] stands for this setting: dose: 100.0 mg/kg/injection, schedule: Q01DX009 (ip), vehicle: Klucel (hydroxypropylcellulose) (HPC).
The mark [2] stands for this setting: dose: 100.0 mg/kg/injection, schedule: Q01DX001 (ip), vehicle: other.
The mark [3] stands for this setting: dose: 200.0 mg/kg/injection, schedule: Q01DX001 (ip), vehicle: other.
The mark [4] stands for this setting: dose: 400.0 mg/kg/injection, schedule: Q01DX001 (ip), vehicle: other.
The mark [5] stands for this setting: dose: 3.12 mg/kg/injection, schedule: Q01DX009 (ip), vehicle: saline.
Setting [6] is: dose: 6.25 mg/kg/injection, schedule: Q01DX009 (ip), vehicle: saline.
Where [7] appears, read: dose: 12.5 mg/kg/injection, schedule: Q01DX009 (ip), vehicle: saline.
Where [8] appears, read: dose: 25.0 mg/kg/injection, schedule: Q01DX009 (ip), vehicle: saline.
The mark [9] stands for this setting: dose: 25.0 mg/kg/injection, schedule: Q04DX003 (ip), vehicle: saline.
[10] abbreviates: dose: 50.0 mg/kg/injection, schedule: Q01DX009 (ip), vehicle: saline.
[11] abbreviates: dose: 50.0 mg/kg/injection, schedule: Q04DX003 (ip), vehicle: saline.
[12] abbreviates: dose: 100.0 mg/kg/injection, schedule: Q04DX002 (ip), vehicle: Klucel (hydroxypropylcellulose) (HPC).
Where [13] appears, read: dose: 200.0 mg/kg/injection, schedule: Q04DX002 (ip), vehicle: Klucel (hydroxypropylcellulose) (HPC).
[14] abbreviates: dose: 400.0 mg/kg/injection, schedule: Q04DX002 (ip), vehicle: Klucel (hydroxypropylcellulose) (HPC).

Where “and” joins values, the source holds several entries; their conditions need not be identical. Identical values can stand only once. Inconclusive results and toxic doses are left out.

As to `NCC(=O)OC(c1ccccc1)(c1ccccc1)c1ccccc1`, the T/C under setting [1] was 96 % of control; the T/C (dose: 100.0 mg/kg/injection, schedule: Q04DX003 (ip), vehicle: Klucel (hydroxypropylcellulose) (HPC)) is 98 % of control; the T/C (dose: 200.0 mg/kg/injection, schedule: Q01DX009 (ip), vehicle: Klucel (hydroxypropylcellulose) (HPC)) was 96 % of control; the T/C (dose: 200.0 mg/kg/injection, schedule: Q04DX003 (ip), vehicle: Klucel (hydroxypropylcellulose) (HPC)) was 88 % of control; the T/C (dose: 400.0 mg/kg/injection, schedule: Q04DX003 (ip), vehicle: Klucel (hydroxypropylcellulose) (HPC)) was 89 % of control.

`CCCC#CC(O)(C(=O)OC)c1ccccc1` (stereo not given): the T/C is 102 % of control under setting [2], 103 % of control under setting [3] and 105 % of control under setting [4].

Consider `CC(=O)Nc1nc2c(ncn2C2OCC(OC(C)=O)C(OC(C)=O)C2OC(C)=O)c(=O)[nH]1` (stereo not given) (tested in a mixture with another compound), for which the T/C (dose: 100.0 mg/kg/injection, schedule: Q01DX001 (ip), vehicle: saline) was 102 % of control; the T/C (dose: 200.0 mg/kg/injection, schedule: Q01DX001 (ip), vehicle: saline) was 102 % of control; the T/C (dose: 400.0 mg/kg/injection, schedule: Q01DX001 (ip), vehicle: saline) was 101 % of control.

Consider `CN1CCN=C1c1ccc(NC(=O)c2cccc(C(=O)Nc3ccc(C4=NCCN4C)cc3)c2)cc1`, for which the T/C runs as follows: (dose: 1.88 mg/kg/injection, schedule: Q01DX Z (ip), vehicle: saline) 107 % of control; (dose: 3.75 mg/kg/injection, schedule: Q01DX Z (ip), vehicle: saline) 101 % of control; (dose: 7.5 mg/kg/injection, schedule: Q01DX Z (ip), vehicle: saline) 122 % of control; (dose: 30.0 mg/kg/injection, schedule: Q01DX Z (ip), vehicle: saline) 154 % of control; (dose: 60.0 mg/kg/injection, schedule: Q01DX Z (ip), vehicle: saline) 234 % of control; (dose: 120.0 mg/kg/injection, schedule: Q01DX Z (ip), vehicle: saline) 171 % of control. Also, the T/C reads like this: (dose: 240.0 mg/kg/injection, schedule: Q01DX Z (ip), vehicle: saline) 119 % of control; (dose: 480.0 mg/kg/injection, schedule: Q01DX Z (ip), vehicle: saline) 106 % of control.

Consider `C(=Nc1ccc2c3c(cccc13)-c1ccccc1-2)c1ccc2c(c1)OCO2`, for which the T/C is, setting by setting: under setting [2], 101 % of control; under setting [3], 97 % of control; under setting [4], 94 % of control.

For the compound `COC(=O)C1=CCCN(C)C1`, the T/C is 103 % of control under setting [5]; 101 % of control under setting [6]; 98 % of control under setting [7]; 93 % of control (dose: 12.5 mg/kg/injection, schedule: Q04DX003 (ip), vehicle: saline); 93 % of control (dose: 20.0 mg/kg/injection, schedule: Q01DX009 (ip), vehicle: saline); 97 % of control (dose: 20.0 mg/kg/injection, schedule: Q04DX003 (ip), vehicle: saline). Also, the T/C is, setting by setting: under setting [8], 98 % of control; under setting [9], 95 % of control and 94 % of control; (dose: 40.0 mg/kg/injection, schedule: Q01DX009 (ip), vehicle: saline) 92 % of control; (dose: 40.0 mg/kg/injection, schedule: Q04DX003 (ip), vehicle: saline) 94 % of control; under setting [10], 106 % of control; under setting [11], 103 % of control and 94 % of control. Besides, the T/C by setting is: (dose: 80.0 mg/kg/injection, schedule: Q01DX009 (ip), vehicle: saline) 90 % of control; (dose: 80.0 mg/kg/injection, schedule: Q04DX003 (ip), vehicle: saline) 100 % of control.

`COc1ccc(C(=O)CC2(O)C(=O)Nc3ccc(Br)cc32)cc1` (stereo not given): the T/C reads like this: under setting [12], 92 % of control; under setting [13], 89 % of control; under setting [14], 92 % of control.

On to `COc1ccc(CC(=O)NCCc2ccccc2)cc1OC`, for which the T/C (dose: 12.5 mg/kg/injection, schedule: Q01DX009 (ip), vehicle: saline with Tween-80) is 92 % of control; the T/C (dose: 25.0 mg/kg/injection, schedule: Q01DX009 (ip), vehicle: saline with Tween-80) is 92 % of control; the T/C (dose: 50.0 mg/kg/injection, schedule: Q01DX009 (ip), vehicle: saline with Tween-80) is 103 % of control and 92 % of control; the T/C (dose: 100.0 mg/kg/injection, schedule: Q01DX009 (ip), vehicle: saline with Tween-80) was 105 % of control.

For the compound `O=C(Nc1cccc(F)c1)Sc1ccc(Cl)cc1`, the T/C (dose: 25.0 mg/kg/injection, schedule: Q01DX009 (ip), vehicle: Klucel (hydroxypropylcellulose) (HPC)) was 98 % of control; the T/C (dose: 50.0 mg/kg/injection, schedule: Q01DX009 (ip), vehicle: Klucel (hydroxypropylcellulose) (HPC)) was 108 % of control; the T/C under setting [1] was 105 % of control and 106 % of control and 112 % of control; the T/C under setting [12] is 95 % of control; the T/C under setting [13] was 98 % of control; the T/C (dose: 400.0 mg/kg/injection, schedule: Q01DX009 (ip), vehicle: Klucel (hydroxypropylcellulose) (HPC)) was 86 % of control. Besides, the T/C under setting [14] is 109 % of control.

For the compound `N#CC(C#N)=Cc1ccc(Cl)cc1`, the T/C runs as follows: (dose: 50.0 mg/kg/injection, schedule: Q01DX001 (ip), vehicle: other) 105 % of control; under setting [2], 102 % of control; under setting [3], 113 % of control.

In the case of `CNCCCN1c2ccccc2CCc2ccccc21`, the T/C under setting [5] is 123 % of control; the T/C (dose: 5.0 mg/kg/injection, schedule: Q01DX001 (ip), vehicle: saline) is 105 % of control; the T/C under setting [6] was 115 % of control; the T/C (dose: 10.0 mg/kg/injection, schedule: Q01DX001 (ip), vehicle: saline) is 100 % of control; the T/C under setting [7] was 115 % of control; the T/C (dose: 20.0 mg/kg/injection, schedule: Q01DX001 (ip), vehicle: saline) is 111 % of control. Besides, the T/C by setting is: under setting [8], 110 % of control; under setting [9], 101 % of control; (dose: 40.0 mg/kg/injection, schedule: Q01DX001 (ip), vehicle: saline) 95 % of control; under setting [10], 106 % of control; under setting [11], 97 % of control; (dose: 80.0 mg/kg/injection, schedule: Q01DX001 (ip), vehicle: saline) 92 % of control.
